{
  "source": "paper PMC6938345",
  "about": "“Inhibition of complement activation, myeloperoxidase, NET formation and oxidant activity by PIC1 peptide variants” (PLoS ONE, 2019)",
  "key": {"Myeloperoxidase (MPO)": {"molecular_target": "T1, Myeloperoxidase (MPO) (Homo sapiens, UniProt P05164)", "T1 construct": "purchased Lee BioSolutions (Maryland Heights, MO)", "T1 sequence (P05164 49-745)": "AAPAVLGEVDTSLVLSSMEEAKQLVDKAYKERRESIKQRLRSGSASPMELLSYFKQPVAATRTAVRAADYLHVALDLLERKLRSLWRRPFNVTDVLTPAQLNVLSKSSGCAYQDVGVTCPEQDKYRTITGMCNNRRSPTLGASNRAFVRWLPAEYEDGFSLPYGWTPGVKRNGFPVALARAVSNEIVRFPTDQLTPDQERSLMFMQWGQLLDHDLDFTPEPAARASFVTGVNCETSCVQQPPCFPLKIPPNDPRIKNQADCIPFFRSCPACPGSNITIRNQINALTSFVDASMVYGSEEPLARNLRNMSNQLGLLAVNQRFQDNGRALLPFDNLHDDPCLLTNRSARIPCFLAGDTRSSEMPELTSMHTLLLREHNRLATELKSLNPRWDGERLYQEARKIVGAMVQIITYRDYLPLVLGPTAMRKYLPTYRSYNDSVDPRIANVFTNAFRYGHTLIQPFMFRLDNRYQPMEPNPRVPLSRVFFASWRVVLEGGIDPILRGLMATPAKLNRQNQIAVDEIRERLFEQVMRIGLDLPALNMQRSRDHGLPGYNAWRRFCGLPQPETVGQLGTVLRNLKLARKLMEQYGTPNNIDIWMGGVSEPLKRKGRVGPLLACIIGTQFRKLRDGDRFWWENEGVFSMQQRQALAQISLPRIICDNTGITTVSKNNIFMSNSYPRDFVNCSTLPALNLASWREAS", "test": "MPO activity assay (TMB-based)", "assay_type": "biochemical", "settings": "range of concentrations", "protocol": "PIC1 and sarcosine variants were diluted to 25 mg/ml and then serially titrated in a 96 well plate at a volume of 0.02 ml. Myeloperoxidase (MPO) was diluted to 20 μg/ml and 0.02 ml was added to the titrated peptides. TMB (3,3′,5,5′-tetramethylbenzidine) (0.1 ml) was added to each well for 2 minutes, followed by 0.1 ml of 2.5 N H2SO4 for another 2 minutes, and then read on a 96 well plate reader (BioTek) at 450 nm.\nIn this assay, the variants were tested for MPO inhibition over a range of concentrations (Fig 2A). Strong MPO inhibition was found for all variants with the exception of the no-cysteine variant (C9,10)."}, "[1]": {"test": "Total Antioxidant Capacity (TAC) assay", "protocol": "The TAC (Total Antioxidant Capacity) Assay (Cell Biolabs, Inc, San Diego, CA) was used to measure the antioxidant capacity of the sarcosine variants based on the reduction of copper (II) to copper (I). The kit protocol was performed as recommended.\nAntioxidant activity is measured in copper reducing equivalents (CRE). Peptides were tested over a range of concentrations from 0.03–0.25 mM then compared to the standard. Data are the means of n = 3 independent experiments + SEM."}},
  "data": [
    {"smiles": "CC[C@H](C)[C@H](N)C(=O)N[C@@H](C)C(=O)N[C@@H](CC(C)C)C(=O)N[C@H](C(=O)N[C@@H](CC(C)C)C(=O)N[C@@H](CCC(=O)O)C(=O)N1CCC[C@H]1C(=O)N(C)CC(=O)N[C@@H](CS)C(=O)N[C@@H](CS)C(=O)N[C@@H](CCC(N)=O)C(=O)N[C@@H](CCC(=O)O)C(=O)N[C@@H](CCCNC(=N)N)C(=O)N[C@@H](C)C(=O)N[C@@H](C)C(=O)O)[C@@H](C)CC", "note": "[I8]", "values": [
      {"measurement": "MPO inhibition (in words)", "setting": "Myeloperoxidase (MPO)", "value": "greatest potency"},
      {"measurement": "TAC assay, antioxidant activity", "setting": "[1]; Avg of n = 3", "value": "1239.37 copper reducing equivalents (CRE)"},
      {"measurement": "antioxidant capacity (in words)", "setting": "[1]; TAC assay", "value": "approaching that of PA-dPEG24"}
    ]}
  ]
}
